Entries after “also recorded” stand apart in the source; their conditions may differ.
Columns and labels:
male CD-1 mice = assay: murine Forced Swim Test (FST), a mouse model of depression; type: in vivo; details: intraperitoneal; for effect on length of time spent immobile / depression, in words: doses per Table 1, ANOVA followed by T-test, versus vehicle; for length of time the mice spent immobile (average time immobile): one hour after dosing, immobility within the last 4 minutes of 6 minutes, mg/kg per Table 1: desipramine 10, entacapone 30, fluoxetine 18, venlafaxine 10, amitriptyline 10, droxidopa 400, carbidopa 20
Description: The effect of droxidopa, alone or in combination with other drugs, in the treatment of depression was evaluated using the murine Forced Swim Test (FST), a mouse model of depression commonly used to evaluate antidepressive drugs. Depression (i.e., “learned helplessness” as evaluated by the FST model) was measured using the method of Porsolt et al., Arch. Int. Pharmacodyn. (1977), 229: 327-336. Briefly, male CD-1 mice weighing 22 g (±2 g) were fasted overnight prior to testing. The mice were randomized into 11 groups of 10 mice each. Mice in each group were treated with the vehicle alone, a drug, or a drug composition as outlined in Table 1 and returned to their respective groups.
In Table 1, the vehicle—2% TWEEN® 80 (i.e., polysorbate 80)—was included in all test compositions. One hour after dosing, the test mice were placed in a 1 liter volume glass beaker (height: 14.5 cm, diameter: 10.5 cm) containing water 6 cm in height at room temperature (22 to 24° C.) for 6 minutes. The duration of animal immobility within the last 4 minutes was then recorded. A mouse was judged to be immobile when it ceased struggling and remained floating in the water making only those movements necessary to keep its head above water. Data were analyzed by ANOVA for significant differences in group means, followed by T-test to distinguish statistically significant groups as appropriate.

MAO-A = biological target: T1, MAO-A (Homo sapiens, UniProt P21397); details: MAO-A versus MAO-B; cited from earlier work
T1 sequence (P21397 1-527): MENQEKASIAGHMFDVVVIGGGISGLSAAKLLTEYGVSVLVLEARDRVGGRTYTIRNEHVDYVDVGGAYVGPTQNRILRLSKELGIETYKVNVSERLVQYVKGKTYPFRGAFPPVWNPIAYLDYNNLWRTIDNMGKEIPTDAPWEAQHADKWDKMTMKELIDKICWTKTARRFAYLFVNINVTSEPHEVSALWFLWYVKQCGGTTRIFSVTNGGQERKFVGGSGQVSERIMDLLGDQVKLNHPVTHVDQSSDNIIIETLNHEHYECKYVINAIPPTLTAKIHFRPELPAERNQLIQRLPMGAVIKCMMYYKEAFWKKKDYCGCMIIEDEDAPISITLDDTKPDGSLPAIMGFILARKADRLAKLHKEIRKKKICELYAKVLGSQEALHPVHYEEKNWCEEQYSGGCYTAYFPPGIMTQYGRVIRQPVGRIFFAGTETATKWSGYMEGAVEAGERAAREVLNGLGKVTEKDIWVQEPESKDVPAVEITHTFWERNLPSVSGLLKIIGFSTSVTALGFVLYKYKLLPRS

CNCCC(Oc1ccc(C(F)(F)F)cc1)c1ccccc1 (centres unmarked) [fluoxetine]
effect on length of time spent immobile / depression, in words (male CD-1 mice): did not significantly decrease; also recorded: failed to decrease depression | length of time the mice spent immobile (average time immobile) (male CD-1 mice): 158.2 s

COc1ccc(C(CN(C)C)C2(O)CCCCC2)cc1 (centres unmarked) [venlafaxine]
effect on length of time spent immobile / depression, in words (male CD-1 mice): did not significantly decrease; also recorded: failed to decrease depression | length of time the mice spent immobile (average time immobile) (male CD-1 mice): 117.5 s

CCN(CC)C(=O)/C(C#N)=C/c1cc(O)c(O)c([N+](=O)[O-])c1 [entacapone, (E)-2-cyano-N,N-diethyl-3-(3,4-dihydroxy-5-nitrophenyl)propenamide]
effect on length of time spent immobile / depression, in words (male CD-1 mice): did not significantly decrease | length of time the mice spent immobile (average time immobile) (male CD-1 mice): 129.9 s

O=C(NCCN1CCOCC1)c1ccc(Cl)cc1 [moclobemide]
selectivity for MAO-A than MAO-B (MAO-A): approximately three times more selective for MAO-A than MAO-B

CNCCCN1c2ccccc2CCc2ccccc21 [desipramine]
effect on length of time spent immobile / depression, in words (male CD-1 mice): did not significantly decrease; also recorded: failed to decrease depression | length of time the mice spent immobile (average time immobile) (male CD-1 mice): 136.4 s

CN(C)CCC=C1c2ccccc2CCc2ccccc21 [amitriptyline]
effect on length of time spent immobile / depression, in words (male CD-1 mice): significant decrease | length of time the mice spent immobile (average time immobile) (male CD-1 mice): 60.0 s

Source: US8383681B2, “Droxidopa and pharmaceutical composition thereof for the treatment of mood disorders, sleep disorders or attention deficit disorders” (Chelsea Therapeutics, Inc., priority 2008, dated 2013)
